ChEMBL document CHEMBL5120960, “Unveiling the Structure-Activity Relationships at the Orthosteric Binding Site of P2X Ion Channels: The Route to Selectivity” (J Med Chem, 2022)
pEC50, pIC50: −log10 of the molar value.

Columns and labels:
Format in all cases: cell-based
P2X purinoceptor 4 [1] = molecular target: T1, P2X purinoceptor 4 (Homo sapiens, UniProt Q99571); experiment: […] activity at human P2X4R expressing HEK293 cells assessed as reduction in intracellular Ca2+ influx pretreated with Fluo-4 for 1 hr followed by compound addition and further incubated for 30 mins in presence of ATP by multimode plate reader analysis
T1 sequence (Q99571 whole entry): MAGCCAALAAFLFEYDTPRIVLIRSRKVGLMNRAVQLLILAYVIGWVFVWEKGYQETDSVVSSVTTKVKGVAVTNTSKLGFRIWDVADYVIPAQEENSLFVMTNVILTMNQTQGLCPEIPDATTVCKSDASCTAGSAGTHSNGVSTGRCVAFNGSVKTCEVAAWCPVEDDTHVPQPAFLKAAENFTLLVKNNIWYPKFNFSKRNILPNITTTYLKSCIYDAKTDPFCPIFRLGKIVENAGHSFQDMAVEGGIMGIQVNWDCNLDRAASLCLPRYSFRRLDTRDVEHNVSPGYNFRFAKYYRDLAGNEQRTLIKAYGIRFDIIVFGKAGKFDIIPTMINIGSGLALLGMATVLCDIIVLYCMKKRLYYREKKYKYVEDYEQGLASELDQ

P2X purinoceptor 1 [2] = molecular target: T2, P2X purinoceptor 1 (Homo sapiens, UniProt P51575); experiment: Antagonist activity at human P2X1R expressing CHO cells assessed as reduction in intracellular Ca2+ influx pretreated with Fluo-4 for 1 hr followed by compound addition and further incubated for 30 mins in presence of ATP by multimode plate reader analysis
T2 sequence (P51575 whole entry): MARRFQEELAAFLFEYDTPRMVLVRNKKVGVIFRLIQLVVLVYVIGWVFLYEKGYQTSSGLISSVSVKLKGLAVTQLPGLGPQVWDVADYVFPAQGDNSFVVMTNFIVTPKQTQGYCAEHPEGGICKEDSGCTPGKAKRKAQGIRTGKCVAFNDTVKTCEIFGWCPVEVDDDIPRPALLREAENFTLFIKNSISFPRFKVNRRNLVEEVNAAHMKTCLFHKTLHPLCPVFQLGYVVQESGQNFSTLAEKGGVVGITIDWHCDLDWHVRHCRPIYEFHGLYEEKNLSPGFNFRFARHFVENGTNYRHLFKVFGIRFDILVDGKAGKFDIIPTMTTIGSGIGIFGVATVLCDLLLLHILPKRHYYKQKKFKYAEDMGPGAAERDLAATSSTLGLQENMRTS

P2X purinoceptor 4 [3] = molecular target: T1, P2X purinoceptor 4; experiment: Antagonist activity at human P2X4R expressing HEK293 cells assessed as reduction in intracellular Ca2+ influx pretreated with Fluo-4 for 1 hr followed by compound addition and further incubated for 30 mins in presence of ATP by multimode plate reader analysis
P2X purinoceptor 1 [4] = molecular target: T2, P2X purinoceptor 1; experiment: […] activity at human P2X1R expressing CHO cells assessed as reduction in intracellular Ca2+ influx pretreated with Fluo-4 for 1 hr followed by compound addition and further incubated for 30 mins in presence of ATP by multimode plate reader analysis
P2X purinoceptor 7 [5] = molecular target: T3, P2X purinoceptor 7 (Homo sapiens, UniProt Q99572); experiment: […] activity at human P2X7R expressed in HEK293 cells assessed as reduction in YO-PRO-1 iodide dye uptake preincubated for 30 mins followed by YO-PRO-1 iodide addition and measured after 2 hrs by fluorescence based multimode plate reader analysis
T3 sequence (Q99572 whole entry): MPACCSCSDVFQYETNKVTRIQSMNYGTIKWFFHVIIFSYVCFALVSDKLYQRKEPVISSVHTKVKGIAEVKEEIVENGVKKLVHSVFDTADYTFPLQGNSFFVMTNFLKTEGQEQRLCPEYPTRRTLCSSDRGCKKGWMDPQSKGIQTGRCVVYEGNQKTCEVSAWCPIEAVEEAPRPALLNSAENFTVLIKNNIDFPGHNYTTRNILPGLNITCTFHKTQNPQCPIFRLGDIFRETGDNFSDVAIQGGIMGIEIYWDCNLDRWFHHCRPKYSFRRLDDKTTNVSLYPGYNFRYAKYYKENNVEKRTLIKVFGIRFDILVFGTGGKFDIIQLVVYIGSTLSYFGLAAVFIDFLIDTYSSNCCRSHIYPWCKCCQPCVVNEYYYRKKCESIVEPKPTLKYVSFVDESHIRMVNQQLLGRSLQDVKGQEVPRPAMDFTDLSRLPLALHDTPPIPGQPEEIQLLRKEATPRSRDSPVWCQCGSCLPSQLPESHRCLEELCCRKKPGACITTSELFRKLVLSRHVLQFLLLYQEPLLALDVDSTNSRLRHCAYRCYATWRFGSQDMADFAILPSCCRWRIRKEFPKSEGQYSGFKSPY

P2X purinoceptor 7 [6] = molecular target: T3, P2X purinoceptor 7; experiment: Antagonist activity at human P2X7R expressing HEK293 cells assessed as reduction in intracellular Ca2+ influx pretreated with Fluo-4 for 1 hr followed by compound addition and further incubated for 30 mins in presence of ATP by multimode plate reader analysis
[7] = molecular target: T4, P2X2/P2X3 heterotrimeric receptor (Homo sapiens, UniProt P56373+Q9UBL9); experiment: Antagonist activity at human P2X2R/P2X3R expressing CHO cells assessed as reduction in intracellular Ca2+ influx pretreated with Fluo-4 for 1 hr followed by compound addition and further incubated for 30 mins in presence of ATP by multimode plate reader analysis
T4 sequence (Q9UBL9 whole entry): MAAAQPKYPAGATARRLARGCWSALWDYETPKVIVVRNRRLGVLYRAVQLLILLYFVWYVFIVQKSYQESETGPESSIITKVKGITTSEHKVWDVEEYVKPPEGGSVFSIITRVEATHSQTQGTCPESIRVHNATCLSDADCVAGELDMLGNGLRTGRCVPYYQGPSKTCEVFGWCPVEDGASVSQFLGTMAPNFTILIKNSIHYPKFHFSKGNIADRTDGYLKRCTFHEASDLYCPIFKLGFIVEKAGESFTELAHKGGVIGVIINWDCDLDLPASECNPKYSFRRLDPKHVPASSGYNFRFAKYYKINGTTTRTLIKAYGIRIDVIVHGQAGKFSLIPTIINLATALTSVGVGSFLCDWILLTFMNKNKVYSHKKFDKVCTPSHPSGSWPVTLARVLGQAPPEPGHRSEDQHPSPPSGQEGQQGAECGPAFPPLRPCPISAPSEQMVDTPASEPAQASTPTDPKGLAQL
T4 sequence (P56373 whole entry): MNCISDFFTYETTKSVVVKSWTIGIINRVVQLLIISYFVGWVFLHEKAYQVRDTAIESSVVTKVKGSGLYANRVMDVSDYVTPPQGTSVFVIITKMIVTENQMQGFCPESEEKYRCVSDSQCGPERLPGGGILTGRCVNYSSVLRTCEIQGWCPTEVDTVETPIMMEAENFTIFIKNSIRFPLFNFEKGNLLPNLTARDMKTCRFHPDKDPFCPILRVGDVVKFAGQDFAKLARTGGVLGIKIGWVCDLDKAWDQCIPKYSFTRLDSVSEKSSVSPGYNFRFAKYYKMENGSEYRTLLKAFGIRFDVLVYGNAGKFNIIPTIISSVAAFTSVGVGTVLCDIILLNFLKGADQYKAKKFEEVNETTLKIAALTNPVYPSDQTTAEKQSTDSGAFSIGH

P2X purinoceptor 2 [8] = molecular target: T5, P2X purinoceptor 2 (Homo sapiens, UniProt Q9UBL9); experiment: […] activity at human P2X2R expressing CHO cells assessed as reduction in intracellular Ca2+ influx pretreated with Fluo-4 for 1 hr followed by compound addition and further incubated for 30 mins in presence of ATP by multimode plate reader analysis
T5 sequence (Q9UBL9 whole entry): T4 sequence (Q9UBL9 whole entry)

P2X purinoceptor 3 [9] = molecular target: T6, P2X purinoceptor 3 (Homo sapiens, UniProt P56373); experiment: Antagonist activity at human P2X3R expressing CHO cells assessed as reduction in intracellular Ca2+ influx pretreated with Fluo-4 for 1 hr followed by compound addition and further incubated for 30 mins in presence of ATP by multimode plate reader analysis
T6 sequence (P56373 whole entry): T4 sequence (P56373 whole entry)

[10] = molecular target: T4, P2X2/P2X3 heterotrimeric receptor; experiment: […] activity at human P2X2R/P2X3R expressing CHO cells assessed as reduction in intracellular Ca2+ influx pretreated with Fluo-4 for 1 hr followed by compound addition and further incubated for 30 mins in presence of ATP by multimode plate reader analysis
P2X purinoceptor 7 [11] = molecular target: T3, P2X purinoceptor 7; experiment: […] activity at human P2X7R expressing HEK293 cells assessed as reduction in intracellular Ca2+ influx pretreated with Fluo-4 for 1 hr followed by compound addition and further incubated for 30 mins in presence of ATP by multimode plate reader analysis
P2X purinoceptor 3 [12] = molecular target: T6, P2X purinoceptor 3; experiment: […] activity at human P2X3R expressing CHO cells assessed as reduction in intracellular Ca2+ influx pretreated with Fluo-4 for 1 hr followed by compound addition and further incubated for 30 mins in presence of ATP by multimode plate reader analysis
P2X purinoceptor 2 [13] = molecular target: T5, P2X purinoceptor 2; experiment: Antagonist activity at human P2X2R expressing CHO cells assessed as reduction in intracellular Ca2+ influx pretreated with Fluo-4 for 1 hr followed by compound addition and further incubated for 30 mins in presence of ATP by multimode plate reader analysis

Row | pEC50 (P2X purinoceptor 4 [1]) | pIC50 (P2X purinoceptor 1 [2]) | pIC50 (P2X purinoceptor 4 [3]) | pEC50 (P2X purinoceptor 1 [4]) | pEC50 (P2X purinoceptor 7 [5]) | pIC50 (P2X purinoceptor 7 [6]) | pIC50 [7] | pEC50 (P2X purinoceptor 2 [8]) | pIC50 (P2X purinoceptor 3 [9]) | pEC50 [10] | pEC50 (P2X purinoceptor 7 [11]) | pEC50 (P2X purinoceptor 3 [12]) | pIC50 (P2X purinoceptor 2 [13]) | pIC50 (P2X purinoceptor 4 [1]) | pIC50 (P2X purinoceptor 1 [4]) | pIC50 (P2X purinoceptor 7 [5]) | pIC50 (P2X purinoceptor 2 [8]) | pIC50 [10] | pIC50 (P2X purinoceptor 7 [11]) | pIC50 (P2X purinoceptor 3 [12]) | SMILES
1 | < 4.00 | 4.80 | 5.20 | < 4.00 | 4.65 | < 4.00 | 4.94 | < 4.00 | 4.73 | < 4.00 | 4.78 | < 4.00 | 5.00 |  |  |  |  |  |  |  | Nc1ncnc2c1ncn2[C@@H]1O[C@H](COP(=O)(O)OP(=O)(O)OP(=O)(O)O)[C@@H](OC(=O)c2cccc3ccccc23)[C@H]1OC(=O)c1cccc2ccccc12
2 |  |  |  |  |  |  |  |  |  |  |  |  |  | < 4.00 | < 4.00 | < 4.00 | < 4.00 | < 4.00 | < 4.00 | < 4.00 | CO[C@@H]1[C@H](O)[C@@H](COP(=O)(O)OP(=O)(O)OP(=O)(O)O)O[C@H]1n1cnc2c(N)ncnc21
3 |  |  |  |  |  |  |  |  |  |  |  |  |  | 6.05 | < 4.00 | < 4.00 | 8.43 | 6.80 | < 4.00 | 6.68 | O=P(O)(O)OP(=O)(O)OP(=O)(O)OC[C@H]1O[C@@H](n2cnc3c(Nc4ccccc4)ncnc32)[C@H](O)[C@@H]1O
4 |  |  |  |  |  |  |  |  |  |  |  |  |  | < 4.00 | 8.45 | < 4.00 | 7.06 | 6.89 | < 4.00 | 6.13 | O=P(O)(O)OP(=O)(O)OP(=O)(O)OC[C@H]1O[C@@H](n2cnc3c(Cl)ncnc32)[C@H](O)[C@@H]1O
5 |  |  |  |  |  |  |  |  |  |  |  |  |  | < 4.00 | < 4.00 | < 4.00 | 5.40 | 5.57 | < 4.00 | < 4.00 | O=P(O)(O)OP(=O)(O)OP(=O)(O)OC[C@H]1O[C@@H](n2cnc3c(NCc4ccccc4)ncnc32)[C@H](O)[C@@H]1O
6 |  |  |  |  |  |  |  |  |  |  |  |  |  | < 4.00 | < 4.00 | < 4.00 | < 4.00 | 6.58 | < 4.00 | 5.89 | CNc1ncnc2c1ncn2[C@@H]1O[C@H](COP(=O)(O)OP(=O)(O)OP(=O)(O)O)[C@@H](O)[C@H]1O

Row | SMILES | pEC50 (P2X purinoceptor 4 [1]) | pIC50 (P2X purinoceptor 1 [2]) | pIC50 (P2X purinoceptor 4 [3]) | pEC50 (P2X purinoceptor 1 [4]) | pEC50 (P2X purinoceptor 7 [5]) | pIC50 (P2X purinoceptor 7 [6]) | pIC50 [7] | pEC50 (P2X purinoceptor 2 [8]) | pIC50 (P2X purinoceptor 3 [9]) | pEC50 [10] | pEC50 (P2X purinoceptor 7 [11]) | pEC50 (P2X purinoceptor 3 [12]) | pIC50 (P2X purinoceptor 2 [13]) | pIC50 (P2X purinoceptor 4 [1]) | pIC50 (P2X purinoceptor 1 [4]) | pIC50 (P2X purinoceptor 7 [5]) | pIC50 (P2X purinoceptor 2 [8]) | pIC50 [10] | pIC50 (P2X purinoceptor 7 [11]) | pIC50 (P2X purinoceptor 3 [12])
7 | Nc1ncnc2c1ncn2[C@@H]1O[C@H](COP(=O)(O)OP(=O)(O)OP(=O)(O)O)[C@@H](O)[C@@H]1O |  |  |  |  |  |  |  |  |  |  |  |  |  | 4.98 | < 4.00 | < 4.00 | < 4.00 | < 4.00 | < 4.00 | < 4.00
